Key:
[1] = test system: mTOR and AR pathways in LNCaP95 cells; experiment: Western blot analysis of mTOR and AR pathways in LNCaP95 cells; type: cell-based, human; settings: LNCaP95 cells
Procedure: Cells were harvested and whole-cell lysate (10 to 15 ug) was subjected to SDS-PAGE. Antibodies used were: AR (1:1000; Santa Cruz), AR-V7 (1:400; Precision), p110α (1:500; BD Bioscience), p110β (1:1000; abcam), […] (1:1000; abcam), p110δ (1:1000; abcam), UBE2C (Boston Biochem; 1:1000), PTEN (1:1000), pS6 (1:2000), pAktThr308 (1:1000), pAktSer473 (1:2000), p4EBP1 (1:1000), total-Akt (1:1000), total-S6 (1:1000), total-4EBP1 (1:1000), pERK/MAPK (1:1000), total-ERK/MAPK (1:1000) from Cell Signaling technology (Danvers, Mass.). β-actin (1:10,000, Abcam) was used as a loading control.
Protein levels of PSA were undetectable in LNCaP95 cells.

AR-V567 = target: T1, AR-V567 (Homo sapiens, UniProt P10275); experiment: PB-luciferase assay in Cos-1 cells transfected with AR-V567; type: cell-based; settings: 24 h, serum-free
T1 construct: expressed in transfected cells; host or cells: Cos-1
T1 sequence (P10275 with tags, fused parts or gaps limits assumed): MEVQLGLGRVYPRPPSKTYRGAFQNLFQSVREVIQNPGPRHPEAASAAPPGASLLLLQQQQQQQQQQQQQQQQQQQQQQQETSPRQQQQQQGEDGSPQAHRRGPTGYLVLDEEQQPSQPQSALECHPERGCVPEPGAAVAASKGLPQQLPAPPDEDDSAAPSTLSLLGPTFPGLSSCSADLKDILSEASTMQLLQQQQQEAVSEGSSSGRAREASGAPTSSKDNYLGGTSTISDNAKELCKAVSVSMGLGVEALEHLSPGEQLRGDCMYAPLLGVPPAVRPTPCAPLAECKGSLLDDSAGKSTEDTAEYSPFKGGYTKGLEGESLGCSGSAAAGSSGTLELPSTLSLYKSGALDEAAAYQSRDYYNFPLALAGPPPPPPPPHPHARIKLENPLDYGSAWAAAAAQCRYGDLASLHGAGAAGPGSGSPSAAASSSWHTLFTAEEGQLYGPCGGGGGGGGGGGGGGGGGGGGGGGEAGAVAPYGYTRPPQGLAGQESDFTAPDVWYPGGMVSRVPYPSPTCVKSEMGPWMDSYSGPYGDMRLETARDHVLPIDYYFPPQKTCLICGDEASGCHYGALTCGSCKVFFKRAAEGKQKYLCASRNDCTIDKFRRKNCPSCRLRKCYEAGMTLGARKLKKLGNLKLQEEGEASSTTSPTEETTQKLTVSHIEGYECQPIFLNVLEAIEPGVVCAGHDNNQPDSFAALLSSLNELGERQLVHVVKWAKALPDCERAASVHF
Excerpt: Ectopic protein levels of AR-V7 and AR-V567 in Cos-1 cells are shown relative to endogenous levels of FL-AR in LNCaP cells.

AR NTD = target: T2, AR NTD (Homo sapiens, UniProt P10275); experiment: AR NTD transactivation assay in LNCaP cells; type: cell-based; settings: 24 h
T2 sequence (P10275 1-558): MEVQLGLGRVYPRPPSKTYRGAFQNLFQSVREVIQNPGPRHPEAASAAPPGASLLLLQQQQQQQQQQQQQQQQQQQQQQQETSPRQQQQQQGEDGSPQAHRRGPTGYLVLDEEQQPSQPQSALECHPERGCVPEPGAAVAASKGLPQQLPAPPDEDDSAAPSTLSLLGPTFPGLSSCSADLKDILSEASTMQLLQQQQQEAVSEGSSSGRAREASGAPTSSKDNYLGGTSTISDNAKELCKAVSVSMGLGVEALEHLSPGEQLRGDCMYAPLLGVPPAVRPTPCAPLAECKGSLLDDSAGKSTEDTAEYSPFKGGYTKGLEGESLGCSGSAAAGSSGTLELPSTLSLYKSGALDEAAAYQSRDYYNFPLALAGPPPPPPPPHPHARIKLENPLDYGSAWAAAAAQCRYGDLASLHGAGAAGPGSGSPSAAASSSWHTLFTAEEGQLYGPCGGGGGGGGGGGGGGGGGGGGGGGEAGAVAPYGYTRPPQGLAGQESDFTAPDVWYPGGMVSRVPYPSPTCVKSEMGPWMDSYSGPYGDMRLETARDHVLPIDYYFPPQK
Procedure: Transactivation assays of the AR NTD were performed in LNCaP and LNCaP95 cells cotransfected with p5xGal4UAS-TATA-luciferase and AR NTD-Gal4DBD (FIG. 2D). […] LNCaP95 cells were harvested 24 h after the treatment of indicated compounds.
The AR NTD is essential for full transcriptional activities (Quayle, S. N. et. al., PNAS 2007, 104, 1331-1336). In LNCaP cells, transactivation of the AR NTD can be induced with IL-6 or by stimulation of the PKA pathway with FSK. In LNCaP95 cells, there is high intrinsic activity of the AR NTD which cannot be further induced by stimulation of these pathways.

[2] = absence of androgen, BEZ-235 15 nM

Cn1c(=O)n(-c2ccc(C(C)(C)C#N)cc2)c2c3cc(-c4cnc5ccccc5c4)ccc3ncc21 [BEZ-235, 2-methyl-2-[4-(3-methyl-2-oxo-8-quinolin-3-ylimidazo[4,5-c]quinolin-1-yl)phenyl]propanenitrile] was tested, and the pAkt ([1]; 500 nM BEZ-235) was “inhibited”, the “levels of UBE2C” value ([1]; 48 h) was “decreased” and the pAkt ([1]; BEZ-235 15 nM, everolimus) was “did not impact”. For the same compound, the “levels of AR-V7” value [1, 2] was “increased”, the “levels of FL-AR” value [1, 2] was “increased” and the “protein levels of FL-AR” value ([1]; titration experiments) was “increased”. For the same compound, the pS6 ribosomal protein ([1]; titration, BEZ-235 15 nM, everolimus 10 nM) was “inhibited”, the “transcriptional activity of AR-V567” value (AR-V567) was “no effect” and the “AR-NTD transactivation induced by FSK” value (AR NTD; FSK 50 uM) was “no effect”. The “AR-NTD transactivation induced by IL-6” value (AR NTD; IL-6 50 ng/ml) was “significantly inhibited”.

— patent publication US20170056336A1, “CO-TARGETING ANDROGEN RECEPTOR SPLICE VARIANTS AND MTOR SIGNALING PATHWAY FOR THE TREATMENT OF CASTRATION-RESISTANT PROSTATE CANCER” (British Columbia Cancer Agency Branch, priority 2015, published 2017)
